# Reference: US9751919B2, “Antimicrobial compositions comprising a hyaluronic acid binding peptide and a β-lactam antibiotic” (priority 2012, dated 2017)
# Several values for one entry are separate records, joined by “and”; a condition that tells them apart may be missing. Equal entries are not always repeated. Where two headings read alike, the source gives them in different places.
# Columns and labels:
# [1] = test system: S. pyogenes; test: Checkerboard assay (FIC index); format: cell-based, Streptococcus pyogenes; settings: antibiotic combined with PEP35
# Protocol: (§1) The checkerboard assays were carried out as described by Eliopoulos and Moellering (Chapter 9) in Antibiotic in Laboratory Medicine, Lorian Ed. 1996 as well as Bonapace et al. Diagnostic Microbiology and Infectious Diseases 2002; 44:363-366 and Bonapace et al. Diagnostic Microbiology and Infectious Diseases 2000; 38:43-50. In brief, checkerboard assays were performed in 96 well microtitre trays using an 8-by-8 well configuration. […] 96-well custom designed microtitre plates contained 100 ul/well of cation adjusted Mueller-Hinton broth (eg. for Enterobacteriaceae) with or without lysed horse blood (2-5% V/V) [eg. for S. pneumoniae] and were inoculated to achieve a final concentration of approximately 5×10^5 CFU/ml and incubated in ambient air for 24 hours prior to reading. Colony counts were performed periodically to confirm inocula. Quality control was performed every two weeks using a variety of ATCC QC organisms including; S. pneumoniae 49619, S. aureus 29213, E. faecalis 29212, E. coli 25922 and P. aeruginosa 27853. For all antimicrobials as well as PEP35, CLSI criteria was used.
# (§2) The fractional inhibitory concentration index (FIC index) was used to interpret synergy, antagonism or additivity/indifference. FIC index=FIC of drug A+FIC of drug B where:
# (§3) The FIC of drug A and drug B is calculated as follows, FIC drug A=MIC of drug A in combination/MIC of drug A alone and FIC of drug B=MIC of drug B in combination/MIC of drug B alone. Synergy is defined as FIC index ≦0.5, additivity/indifference FIC >0.5-4 and antagonism FIC index >4.
# (§4) Antimicrobials used included PEP35, cefazolin, ceftriaxone, vancomycin, linezolid, tigecycline and daptomycin versus Gram-positive cocci and PEP35, gentamicin, levofloxacin, piperacillin/tazobactam, meropenem and colistin (Polymyxin E) versus Gram-negative bacilli. These agents were obtained as laboratory grade powders from their respective manufacturers. Stock solutions were prepared and dilutions made as described by the Clinical Laboratory Standards Institute (2005 CLSI).
# (§5) Organisms included Gram-positive cocci (2 strains of each): Methicillin-susceptible Staphylococcus aureus (MSSA), community-associated (CA) and healthcare-associated (HA) methicillin-resistant Staphylococcus aureus (MRSA), vancomycin-intermediate Staphylococcus aureus (VISA), vancomycin-resistant Staphylococcus aureus (VRSA), methicillin-resistant Staphylococcus epidermidis (MRSE), Streptococcus pyogenes, Streptococcus agalactiae, Streptococcus pneumoniae, Enterococcus faecalis, Enterococcus faecium and vancomycin-resistant enterococcus (VRE). Gram-negative bacilli tested (2 strains of each) included: E. coli, Pseudomonas aeruginosa, Klebsiella pneumoniae, K. oxytoca, Enterobacter cloacae, P. mirabilis and Stenotrophomonas maltophilia. MIC testing, following two subcultures from frozen stock were determined by the CLSI 2005 approved broth microdilution method.
# [2] = test system: HA-MRSA; test: MIC (CLSI broth dilution), agent alone; format: cell-based, Staphylococcus aureus
# In short: (§6)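 S. aureus isolates were tested by CLSI 2005 broth macrodilution in doubling dilutions of cation-adjusted Mueller-Hinton broth. Inoculum was about 5×10^5 CFU/ml, with 24 h incubation in ambient air. MIC was the lowest concentration inhibiting visible growth, with an MSSA and ATCC QC strains as controls.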
# [3] = test system: CA-MRSA; test: MIC (CLSI broth dilution), agent alone; format: cell-based, Staphylococcus aureus
# In short: as §6
# [4] = test system: MSSA; test: MIC (CLSI broth dilution), agent alone; format: cell-based, Staphylococcus aureus; settings: agent alone
# In short: as §6
# [5] = test system: S. pneumoniae; test: Checkerboard assay (FIC index); format: cell-based, Streptococcus pneumoniae; settings: antibiotic combined with PEP35;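 also: each agent diluted from 0.03 to 4 times its MIC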
# Protocol: as §1, §2, §3, §4, §5
# [6] = test system: E. faecalis; test: Checkerboard assay (FIC index); format: cell-based, Enterococcus faecalis; settings: antibiotic combined with PEP35
# Protocol: as §1, §2, §3, §4, §5
# [7] = test system: VRSA; test: MIC (CLSI broth dilution), agent alone; format: cell-based, Staphylococcus aureus; parameters: unit not given beside the values
# [8] = HA-MRSA 70798 (USA100/800), agent alone, in µg/mL
# [9] = HA-MRSA 77090 (USA100/800), agent alone
# [10] = HA-MRSA 77090 (USA100/800)^a row, antibiotic alone, in µg/mL
# [11] = HA-MRSA 77090 (USA100/800)^b row, antibiotic alone, in µg/mL
# [12] = HA-MRSA 77098 (USA100/800), agent alone
# [13] = CA-MRSA 69615 (USA400), agent alone
# [14] = CA-MRSA 69615 (USA400)^a row, antibiotic alone, in µg/mL
# [15] = CA-MRSA 69615 (USA400)^b row, antibiotic alone, in µg/mL
# [16] = S. pneumoniae-Pen I 72302 (MHB)
# [17] = S. pneumoniae-Pen I 78663 (MHB)
# [18] = S. pneumoniae-Pen R 76065 (MHB)
# [19] = S. pneumoniae-Pen R 78519 (MHB)
# [20] = S. pneumoniae-Pen S 70400 (MHB)
# [21] = S. pneumoniae-Pen S 71263 (MHB)
Compound,Avg ΣFIC (range) ([1]; S. pyogenes 77765 (MHB)),Avg ΣFIC (range) ([1]; S. pyogenes 79531 (MHB)),"MIC [2, 8]","MIC [2, 9]","MIC [2, 10]","MIC [2, 11]","MIC [2, 12]","MIC [3, 13]","MIC [3, 14]",MIC ([4]; MSSA 79333),"Avg ΣFIC (range) [5, 16]","Avg ΣFIC (range) [5, 17]","Avg ΣFIC (range) [5, 18]","Avg ΣFIC (range) [5, 19]","Avg ΣFIC (range) [5, 20]","Avg ΣFIC (range) [5, 21]",Avg ΣFIC (range) ([6]; E. faecalis 70468),Avg ΣFIC (range) ([6]; E. faecalis 78145),MIC ([7]; VRSA 105),MIC ([7]; VRSA 106),further results
Cc1nnc(SCC2=C(C(=O)O)N3C(=O)[C@@H](NC(=O)Cn4cnnn4)[C@H]3SC2)s1 [Cefazolin],1.04 (0.75-1.25),1.19 (1.03-1.5),512,128 and 256/256,128,128,512/512,64 and 64/64,64,1 and 0.5/0.5,1.1 (1.0-1.25),1.1 (1.0-1.25),0.70 (0.53-1.06),0.97 (0.75-1.12),0.68 (0.515-1.06),0.99 (0.62-1.25),0.94 (0.56-1.25),0.93 (0.62-1.06),128/128/128/,256/256,"MICs alone, range ([2]; 50 HA-MRSA strains): 2 to 512 µg/mL; strains resistant to the antibiotic ([2]; 50 HA-MRSA strains): 47 of the 50 strains; MIC ([2]; HA-MRSA 77090 (USA100/800), agent alone, in µg/mL): 128 and 64; MIC ([2]; Staphylococcus aureus, MRSA / USA200, HA-MRSA (CMRSA4/USA200), antibiotic alone, read-out: Cefazolin (MIC)): 256 µg/mL; MIC ([2]; Staphylococcus aureus, MRSA / USA500, HA-MRSA (CMRSA5/USA500), antibiotic alone, read-out: Cefazolin (MIC)): 2 µg/mL; MIC ([2]; Staphylococcus aureus, MRSA / USA600, HA-MRSA (CMRSA1/USA600), antibiotic alone, read-out: Cefazolin (MIC)): 128 µg/mL; MIC ([2]; Staphylococcus aureus, MRSA, HA-MRSA (CMRSA3/6), antibiotic alone, read-out: Cefazolin (MIC)): 256 µg/mL; MIC ([2]; Staphylococcus aureus, MRSA, HA-MRSA (CMRSA6), antibiotic alone, read-out: Cefazolin (MIC)): 256 µg/mL; MIC ([2]; Staphylococcus aureus, MRSA, HA-MRSA (CMRSA8), antibiotic alone, read-out: Cefazolin (MIC)): 64 µg/mL; MICs alone, range ([3]; 50 CA-MRSA strains): 2 to 256 µg/mL; strains resistant to the antibiotic ([3]; 50 CA-MRSA strains): 45 of the 50 strains; MIC [3, 15]: 64; MIC ([3]; CA-MRSA 70857 (USA400), agent alone): 32 and 32/32; MIC ([3]; Staphylococcus aureus, MRSA / USA400): 256 µg/mL; MIC ([4]; MSSA 79333, listed as CEFAZOLIN): 0.5/0.5; MIC ([4]; S. aureus control): 0.5/0.5 ug/ml; MIC ([4]; Staphylococcus aureus, MSSA, S. aureus control, read-out: MIC): 0.5 µg/mL; MIC ([7]; VRSA 105, in µg/mL): 128 and 256; MIC ([7]; VRSA 106, in µg/mL): 256 and 128"
CO/N=C(\C(=O)N[C@@H]1C(=O)N2C(C(=O)O)=C(CSc3nc(=O)c(=O)[nH]n3C)CS[C@H]12)c1csc(N)n1 [Ceftriaxone],1.19 (0.03-1.5),1.19 (1.03-1.5),2048,512 and 1024/1024,512,512,4096/4096,–,512,8 and 4/4,1.05 (0.75-1.25),1.1 (1.0-1.25),1.21 (1.03-1.5),1.05 (0.75-1.25),0.99 (0.62-1.06),0.91 (0.62-1.12),1.1 (1-1.25),0.72 (0.53-1.12),2048 and 1024/1024,1024 and 2048/2048,"MIC ([3]; CA-MRSA 69615 (USA400), agent alone, in µg/mL): 256 and 512; MIC ([3]; CA-MRSA 69615 (USA400), agent alone, listed as CEFTRIAXONE, in µg/mL): 128 and 64; MIC [3, 15]: 256; MIC ([3]; CA-MRSA 70857 (USA400), agent alone, in µg/mL): 256 and 128; MIC ([4]; MSSA 79333, listed as CEFTRIAXONE): 4/4; MIC ([7]; VRSA 106, listed as CEFTRIAXONE): 1024/1024"
CN[C@H](CC(C)C)C(=O)N[C@H]1C(=O)N[C@@H](CC(N)=O)C(=O)N[C@H]2C(=O)N[C@H]3C(=O)N[C@H](C(=O)N[C@H](C(=O)O)c4cc(O)cc(O)c4-c4cc3ccc4O)[C@H](O)c3ccc(c(Cl)c3)Oc3cc2cc(c3O[C@@H]2O[C@H](CO)[C@@H](O)[C@H](O)[C@H]2O[C@H]2C[C@](C)(N)[C@H](O)[C@H](C)O2)Oc2ccc(cc2Cl)[C@H]1O [Vancomycin],1.09 (1.0-1.25),1.27 (1.015-2.5),–,1/1,–,–,–,1/1,–,1 and 0.5,1.26 (1.06-1.5),1.1 (1.0-1.25),0.86 (0.53-1.25),1.2 (1.015-1.5),0.91 (0.56-1.25),1.05 (0.75-1.25),1.1 (1-1.25),1.19 (1.03-15),512/512/512,512/512/512,"MIC ([7]; VRSA 105, listed as VAN, in µg/mL): 512; MIC ([7]; VRSA 106, listed as VAN, in µg/mL): 512"
